Assay results from US7550451B2, “Progesterone receptor modulators with increased antigonadotropic activity for female birth control and hormone replacement therapy” (Bayer Schering Pharma AG, priority 2002, dated 2009).

Experiments:
[1] = biological target: T1, Progesterone receptor (Oryctolagus cuniculus, UniProt P06186); assay: Receptor binding affinity, progesterone receptor (competitive binding, 3H-ORG 2058); conditions: Progesterone = 100%; uterus cytosol of estradiol-primed rabbit
T1 construct: Uterus cytosol of the estradiol-primed rabbit; from tissue; host or cells: uterus cytosol of estradiol-primed rabbit
T1 sequence (P06186 1-930): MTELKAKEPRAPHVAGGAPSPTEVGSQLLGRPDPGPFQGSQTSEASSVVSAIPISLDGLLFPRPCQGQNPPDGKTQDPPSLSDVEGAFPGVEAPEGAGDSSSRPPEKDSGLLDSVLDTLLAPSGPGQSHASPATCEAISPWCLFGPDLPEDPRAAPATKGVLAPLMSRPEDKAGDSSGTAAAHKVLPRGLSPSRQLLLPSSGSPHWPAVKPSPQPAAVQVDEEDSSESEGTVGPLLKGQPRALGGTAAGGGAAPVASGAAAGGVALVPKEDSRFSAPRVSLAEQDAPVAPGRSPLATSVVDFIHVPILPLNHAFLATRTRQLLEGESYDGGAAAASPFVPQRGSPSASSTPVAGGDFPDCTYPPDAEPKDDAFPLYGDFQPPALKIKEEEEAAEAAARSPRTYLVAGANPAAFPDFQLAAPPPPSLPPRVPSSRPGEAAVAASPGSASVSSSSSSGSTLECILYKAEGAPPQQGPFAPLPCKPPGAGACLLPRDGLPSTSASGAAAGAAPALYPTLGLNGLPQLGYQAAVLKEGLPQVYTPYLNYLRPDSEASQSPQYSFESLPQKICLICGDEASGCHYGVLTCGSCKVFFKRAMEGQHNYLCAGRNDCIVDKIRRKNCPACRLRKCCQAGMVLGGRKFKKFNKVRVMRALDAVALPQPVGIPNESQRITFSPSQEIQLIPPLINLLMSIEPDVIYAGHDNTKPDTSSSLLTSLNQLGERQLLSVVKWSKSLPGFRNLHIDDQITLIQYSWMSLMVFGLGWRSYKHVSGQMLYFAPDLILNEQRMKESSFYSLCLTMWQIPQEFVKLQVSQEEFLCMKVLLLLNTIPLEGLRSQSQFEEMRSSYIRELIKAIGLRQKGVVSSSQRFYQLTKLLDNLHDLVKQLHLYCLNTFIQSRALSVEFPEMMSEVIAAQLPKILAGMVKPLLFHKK
Experimental: (§1) The receptor binding affinity was determined by competitive binding of a specifically binding ^3H-labeled hormone (tracer) and the compound to be tested on receptors in the cytosol from animal target organs. In this case, receptor saturation and reaction equilibrium were sought.
(§2) The tracers and increasing concentrations of the compound to be tested (competitor) were co-incubated with the receptor-containing cytosol fraction at 0-4° C. over 18 hours. After separation of the unbonded tracer with carbon-dextran suspension, the receptor-bonded tracer portion was measured for each concentration, and the IC50 was determined from the concentration sequence. As a quotient of the IC50 values of the reference substance and the compound to be tested (×100%), the relative molar binding affinity (RBA) was calculated (RBA of the reference substance=100%).
Uterus cytosol of the estradiol-primed rabbit; homogenized in TED buffer (20 mmol of Tris/HCl, pH 7.4; 1 mmol of ethylenediamine tetraacetate, 2 mmol of dithiothreitol) with 250 mmol of saccharose; stored at −30° C. Tracer: ^3H-ORG 2058, 5 nmol; reference substance: progesterone.

[2] = biological target: T2, Androgen receptor (Rattus norvegicus, UniProt P15207); assay: Receptor binding affinity, androgen receptor (competitive binding, 3H-metribolone); conditions: prostate cytosol of castrated rat; for AR relative molar binding affinity (RBA) a) against RU 1881: reference RU 1881 (metribolone); for AR relative molar binding affinity (RBA) b) against dihydrotestosterone (DHT): reference dihydrotestosterone
T2 construct: Prostate cytosol of the castrated rat; from tissue; host or cells: prostate cytosol of castrated rat
T2 sequence (P15207 1-902): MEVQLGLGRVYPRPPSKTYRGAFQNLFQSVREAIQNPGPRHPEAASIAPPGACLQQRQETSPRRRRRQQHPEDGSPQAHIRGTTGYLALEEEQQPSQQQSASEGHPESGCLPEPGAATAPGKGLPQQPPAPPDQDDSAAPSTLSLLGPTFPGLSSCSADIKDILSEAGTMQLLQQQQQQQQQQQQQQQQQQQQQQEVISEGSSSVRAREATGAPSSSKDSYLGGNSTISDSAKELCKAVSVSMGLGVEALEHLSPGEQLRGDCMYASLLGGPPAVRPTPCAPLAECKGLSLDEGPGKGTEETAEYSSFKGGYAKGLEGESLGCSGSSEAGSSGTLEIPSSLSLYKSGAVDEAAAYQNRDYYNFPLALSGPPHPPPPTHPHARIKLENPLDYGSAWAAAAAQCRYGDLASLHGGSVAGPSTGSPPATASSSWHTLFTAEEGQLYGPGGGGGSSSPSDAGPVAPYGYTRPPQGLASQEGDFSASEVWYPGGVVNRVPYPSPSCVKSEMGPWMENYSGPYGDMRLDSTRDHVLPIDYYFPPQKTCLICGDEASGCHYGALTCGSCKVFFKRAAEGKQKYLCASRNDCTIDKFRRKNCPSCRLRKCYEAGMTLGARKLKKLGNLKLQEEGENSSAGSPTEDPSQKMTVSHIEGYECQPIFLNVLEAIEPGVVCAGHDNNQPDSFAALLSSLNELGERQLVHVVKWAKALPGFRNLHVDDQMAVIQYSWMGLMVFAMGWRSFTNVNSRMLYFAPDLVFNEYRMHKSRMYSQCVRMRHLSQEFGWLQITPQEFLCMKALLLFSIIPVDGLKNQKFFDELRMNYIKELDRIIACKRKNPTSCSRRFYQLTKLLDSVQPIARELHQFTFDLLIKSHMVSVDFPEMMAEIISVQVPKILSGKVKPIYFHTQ
Experimental: as §1, §2
Prostate cytosol of the castrated rat; prostates stored at −30° C.; buffer: TED with 10% glycerol as well as 2 μmol of triamcinolone acetonide. Tracer: ^3H-metribolone 4 nmol; reference substances: metribolone (RU 1881) or 5α-dihydrotestosterone.

[3] = biological target: T3, Glucocorticoid receptor (Rattus norvegicus, UniProt P06536); assay: Receptor binding affinity, glucocorticoid receptor (competitive binding, 3H-dexamethasone); conditions: Dexamethasone = 100%; thymus cytosol of adrenalectomized rat
T3 construct: Thymus cytosol of the adrenalectomized rat; from tissue; host or cells: thymus cytosol of adrenalectomized rat
T3 sequence (P06536 1-795): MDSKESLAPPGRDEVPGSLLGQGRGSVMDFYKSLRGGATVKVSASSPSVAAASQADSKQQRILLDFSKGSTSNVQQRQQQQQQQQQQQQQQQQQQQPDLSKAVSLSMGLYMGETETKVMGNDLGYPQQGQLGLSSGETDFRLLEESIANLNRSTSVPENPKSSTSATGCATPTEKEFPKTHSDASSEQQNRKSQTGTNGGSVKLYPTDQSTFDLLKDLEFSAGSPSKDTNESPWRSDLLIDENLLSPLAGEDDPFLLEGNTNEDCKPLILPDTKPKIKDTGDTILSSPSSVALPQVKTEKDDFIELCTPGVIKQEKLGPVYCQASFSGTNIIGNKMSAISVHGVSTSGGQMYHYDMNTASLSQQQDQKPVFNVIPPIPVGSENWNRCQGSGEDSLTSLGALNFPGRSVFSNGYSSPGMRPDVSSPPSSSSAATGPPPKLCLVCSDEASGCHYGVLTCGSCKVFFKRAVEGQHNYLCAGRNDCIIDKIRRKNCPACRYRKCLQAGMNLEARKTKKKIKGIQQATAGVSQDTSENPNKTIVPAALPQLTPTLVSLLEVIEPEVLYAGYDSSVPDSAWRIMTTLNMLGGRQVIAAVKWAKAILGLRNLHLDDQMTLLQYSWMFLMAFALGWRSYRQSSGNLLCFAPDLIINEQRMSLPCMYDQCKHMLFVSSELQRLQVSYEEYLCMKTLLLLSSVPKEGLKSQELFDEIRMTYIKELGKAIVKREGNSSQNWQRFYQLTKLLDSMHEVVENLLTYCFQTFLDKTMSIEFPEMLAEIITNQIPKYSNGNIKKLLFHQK
Experimental: as §1, §2
Thymus cytosol of the adrenalectomized rat, thymi stored at −30° C.; buffer: TED. Tracer: ^3H-Dexamethasone, 20 nmol; reference substance: dexamethasone.

| Compound | PR relative molar binding affinity (RBA) [1] | AR relative molar binding affinity (RBA) a) against RU 1881 [2] | AR relative molar binding affinity (RBA) b) against dihydrotestosterone (DHT) [2] | GR relative molar binding affinity (RBA) [3] |
| --- | --- | --- | --- | --- |
| 4-(4′-Bromo-17β-methoxy-3-oxoestra-4,9-dien-11β-yl)benzaldehyde-1(E)-oxime [Example 7] | 110% | a) 8.7% | b) 13.2% | 0.69% |
| CC(=O)OC1CCC2C3CCC4=CC(=O)CCC4=C3C(c3ccc(C=NO)cc3)CC12C (stereo not drawn) [Example 3, 4-(17β-Acetoxy-3-oxoestra-4,9-dien-11β-yl)benzaldehyde-1-(E)-oxime] | 20% | – | – | 12% |
| CCNC(=O)O[C@H]1CC[C@H]2[C@@H]3CCC4=CC(=O)CCC4=C3[C@@H](c3ccc(/C=N/O)cc3)C[C@]12C [Example 4, 4-[17β-(N-Ethylamino)carbonyloxy-3-oxoestra-4,9-dien-11β-yl]benzaldehyde-1(E)-oxime] | 13% | a) 2.9% | b) 4.5% | 11% |
| CC12CC(c3ccc(C=NO)cc3)C3=C4CCC(=O)C(Br)=C4CCC3C1CCC2(O)C(F)(F)F (stereo not drawn) [Example 8, 4-(4′-Bromo-17β-hydroxy-17α-trifluoromethyl-3-oxoestra-4,9-dien-11β-yl)benzaldehyde-1(E)-oxime] | 87% | a) 7.8% | b) 11.8% | 1.8% |
| CCNC(=O)O/N=C/c1ccc([C@H]2C[C@@]3(C)[C@@H](CC[C@]3(C)O)[C@@H]3CCC4=CC(=O)CCC4=C32)cc1 [Example 9, 4-[17β-Hydroxy-17α-methyl-3-oxoestra-4,9-dien-11β-yl]benzaldehyde-1-(E)-[O-(ethylamino)-carbonyl]oxime] | 161% | a) 15% | b) 23% | 25% |
| CC12CC(c3ccc(C=NO)cc3)C3=C4CCC(=O)C=C4CCC3C1CCC2(O)CBr (stereo not drawn) [Example 10, 4-(17α-Bromomethyl-17β-hydroxy-3-oxoestra-4,9-dien-11β-yl)benzaldehyde-1(E)-oxime] | 21% | a) 0.6% | b) 0.9% | 3% |
| CCNC(=O)O/N=C/c1ccc([C@H]2C[C@]3(C)[C@@H](O)CC[C@H]3[C@@H]3CCC4=CC(=O)CCC4=C32)cc1 [Example 11, 4-[17β-Hydroxy-3-oxoestra-4,9-dien-11β-yl]benzaldehyde-1-(E)-[O-(ethylamino)-carbonyl]oxime] | 34% | a) 10% | b) 15% | 10% |
| CC12CC(c3ccc(C=NO)cc3)C3=C4CCC(=O)C=C4CCC3C1C=CC2O (stereo not drawn) [Example 12, 4-(17β-Hydroxy-3-oxoestra-4,9,15-trien-11β-yl)benzaldehyde-1(E)-oxime] | 38% | a) 22% | b) 34% | 5% |
| CC(=O)O[C@H]1CC[C@H]2[C@@H]3CCC4=C(Br)C(=O)CCC4=C3[C@@H](c3ccc(/C=N/O)cc3)C[C@]12C [Example 13, 4-(17β-Acetoxy-4′-bromo-3-oxoestra-4,9-dien-11β-yl)benzaldehyde-1-(E)oxime] | 45% | a) 6% | b) 10% | 0.35% |
| CC(=O)O/N=C/c1ccc([C@H]2C[C@]3(C)[C@@H](OC(C)=O)CC[C@H]3[C@@H]3CCC4=C(Br)C(=O)CCC4=C32)cc1 [Example 14, 4-(17β-Acetoxy-4′-bromo-3-oxoestra-4,9-dien-11β-yl)benzaldehyde-1-(E)-O-acetyloxime] | 23% | a) 6% | b) 10% | 0.3% |
| CCO[C@H]1CC[C@H]2[C@@H]3CCC4=CC(=O)CCC4=C3[C@@H](c3ccc(/C=N/O)cc3)C[C@]12C [Example 15, 4-(17β-Ethoxy-3-oxoestra-4,9-dien-11β-yl)benzaldehyde-1(E)-oxime] | 143% | a) 13% | b) 21% | 17% |
